Measurements published in patent US9096591B2, “Tetracyclic compounds” (Medivation Technologies, Inc., priority 2007, dated 2015).
Where two headings read alike, the source gives them in different places.

Assays:
[1] = target: T1, human recombinant histamine H1 receptor (Homo sapiens, UniProt P35367); experiment: Histamine H1 radioligand binding ([3H]Pyrilamine); conditions: for inhibition at 0.1 µM: 0.1 μM compound; for inhibition at 0.01 µM: 10 nM (0.01 μM) compound
T1 construct: expressed in transfected cells; host or cells: CHO cells
T1 sequence (P35367 whole entry): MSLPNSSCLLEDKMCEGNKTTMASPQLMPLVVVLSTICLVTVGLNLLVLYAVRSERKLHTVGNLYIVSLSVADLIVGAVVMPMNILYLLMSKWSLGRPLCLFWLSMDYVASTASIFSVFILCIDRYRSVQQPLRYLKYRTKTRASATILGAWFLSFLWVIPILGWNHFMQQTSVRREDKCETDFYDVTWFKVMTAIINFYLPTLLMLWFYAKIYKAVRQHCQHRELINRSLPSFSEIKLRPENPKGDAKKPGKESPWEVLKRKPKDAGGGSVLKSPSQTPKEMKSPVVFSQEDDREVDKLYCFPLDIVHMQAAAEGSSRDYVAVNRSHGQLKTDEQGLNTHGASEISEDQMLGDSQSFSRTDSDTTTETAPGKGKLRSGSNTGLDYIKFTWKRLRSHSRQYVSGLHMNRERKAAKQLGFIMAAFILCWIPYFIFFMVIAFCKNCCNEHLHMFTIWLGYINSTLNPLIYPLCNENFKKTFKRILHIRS
Outline: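 Receptor expressed in CHO cells, assayed in 50 mM Tris-HCl pH 7.4 with 2 mM MgCl2, 100 mM NaCl, 250 mM sucrose. Compounds tested at 1 μM in 1% DMSO; non-specific binding set with 1 μM pyrilamine. Filter-bound radioactivity counted; values are percent inhibition of specific binding.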

[2] = target: T2, human recombinant adrenergic α2A receptor (Homo sapiens, UniProt P08913); experiment: Adrenergic α2A radioligand binding ([3H]MK-912); set-up: Inhibition of ligand binding, Adren. alpha2A: concentration or dose not given beside the values; conditions: percent inhibition of specific binding
T2 construct: expressed in transfected cells; host or cells: insect Sf9 cells
T2 sequence (P08913 1-465): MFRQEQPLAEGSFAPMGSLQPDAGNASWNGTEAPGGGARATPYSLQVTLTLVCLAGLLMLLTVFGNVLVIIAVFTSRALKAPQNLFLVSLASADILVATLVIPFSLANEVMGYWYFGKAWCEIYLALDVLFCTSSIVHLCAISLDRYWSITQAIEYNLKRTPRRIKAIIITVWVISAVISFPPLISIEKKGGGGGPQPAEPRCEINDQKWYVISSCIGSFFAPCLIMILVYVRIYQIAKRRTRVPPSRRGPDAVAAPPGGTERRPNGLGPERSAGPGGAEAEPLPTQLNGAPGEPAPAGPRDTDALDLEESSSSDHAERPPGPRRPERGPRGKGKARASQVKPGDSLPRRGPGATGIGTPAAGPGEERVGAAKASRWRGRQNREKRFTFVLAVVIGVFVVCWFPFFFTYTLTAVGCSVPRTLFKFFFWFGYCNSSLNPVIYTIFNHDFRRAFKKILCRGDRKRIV
Method: To evaluate in radioligand binding assays the activity of compounds of the invention, human recombinant adrenergic α2A receptor expressed in insect Sf9 cells (Uhlen S et al. J Pharmacol Exp Ther. 271:1558, 1994) in a modified Tris-HCl buffer (50 mM Tris-HCl, pH 7.4, 12.5 mM MgCl2, 2 mM EDTA) was used. Compounds of invention were incubated with 1 nM [^3H]MK-912 for 60 minutes at 25° C. MK912 is (2S-trans)-1,3,4,5′,6,6′,7,12b-octahydro-1′,3′-dimethyl-spiro[2H-benzofuro[2,3-a]quinolizine-2,4′(1′H)-pyrimidin]-2′(3′H)-one hydrochloride Non-specific binding was estimated in the presence of 10 μM WB-4101 (2-(2,6-Dimethoxyphenoxyethyl)aminomethyl-1,4-benzodioxane hydrochloride). Receptor proteins were filtered and washed, the filters were then counted to determine [^3H]MK-912 specifically bound. […] Biochemical assay results are presented as the percent inhibition of specific binding in Table 6.

[3] = target: T3, human recombinant serotonin (5-Hydroxytryptamine) 5-HT2A receptor (Homo sapiens, UniProt P28223); experiment: Serotonin 5-HT2A radioligand binding ([3H]Ketanserin); conditions: percent inhibition of specific binding
T3 construct: expressed in transfected cells; host or cells: CHO-K1 cells
T3 sequence (P28223 whole entry): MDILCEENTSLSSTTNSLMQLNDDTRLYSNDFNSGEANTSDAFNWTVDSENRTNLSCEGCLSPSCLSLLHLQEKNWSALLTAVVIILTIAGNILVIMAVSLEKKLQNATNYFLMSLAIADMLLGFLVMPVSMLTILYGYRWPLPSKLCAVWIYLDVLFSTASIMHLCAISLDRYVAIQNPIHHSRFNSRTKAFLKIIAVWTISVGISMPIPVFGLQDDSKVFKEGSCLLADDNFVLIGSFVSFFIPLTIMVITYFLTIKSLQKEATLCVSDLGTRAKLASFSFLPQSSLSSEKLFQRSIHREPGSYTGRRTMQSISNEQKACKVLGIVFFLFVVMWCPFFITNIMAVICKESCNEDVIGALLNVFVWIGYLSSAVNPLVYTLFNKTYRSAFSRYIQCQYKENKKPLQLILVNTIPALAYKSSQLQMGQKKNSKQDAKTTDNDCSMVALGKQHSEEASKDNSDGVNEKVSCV
Method: (§1) Compounds of the invention were incubated with 0.5 nM [^3H]Ketanserin for 60 minutes at 25° C. Non-specific binding was estimated in the presence of 1 μM Mianserin. Receptor proteins were filtered and washed, the filters were then counted to determine [^3H]Ketanserin specifically bound. […] Biochemical assay results are presented as the percent inhibition of specific binding in Table 6.

[4] = target: T4, human recombinant serotonin (5-Hydroxytryptamine) 5-HT2C receptor (Homo sapiens, UniProt P28335); experiment: Serotonin 5-HT2C radioligand binding ([3H]Mesulergine); set-up: Inhibition of ligand binding, Ser. 5-HT2C: concentration or dose not given beside the values; conditions: percent inhibition of specific binding
T4 construct: expressed in transfected cells; host or cells: CHO-K1 cells
T4 sequence (P28335 33-458): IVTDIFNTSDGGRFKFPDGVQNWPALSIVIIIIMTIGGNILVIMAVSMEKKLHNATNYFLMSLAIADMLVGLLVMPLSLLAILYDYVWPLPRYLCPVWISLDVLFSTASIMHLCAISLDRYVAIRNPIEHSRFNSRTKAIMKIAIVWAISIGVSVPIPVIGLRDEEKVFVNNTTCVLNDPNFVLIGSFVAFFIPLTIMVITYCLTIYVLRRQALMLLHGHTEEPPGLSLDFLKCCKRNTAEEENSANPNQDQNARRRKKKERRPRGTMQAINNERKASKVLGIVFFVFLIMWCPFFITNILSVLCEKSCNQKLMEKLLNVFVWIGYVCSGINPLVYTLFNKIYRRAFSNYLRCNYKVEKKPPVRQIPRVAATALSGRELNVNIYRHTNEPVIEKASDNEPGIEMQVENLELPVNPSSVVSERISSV
Method: as §1, with “1” for “0.5”, “[^3H]Mesulergine” for “[^3H]Ketanserin”

[5] = target: T5, human recombinant serotonin (5-Hydroxytryptamine) 5-HT6 receptor (Homo sapiens, UniProt P50406); experiment: Serotonin 5-HT6 radioligand binding ([3H]LSD); set-up: Inhibition of ligand binding, Ser. 5-HT6: concentration or dose not given beside the values; conditions: percent inhibition of specific binding
T5 construct: expressed in transfected cells; host or cells: human HeLa cells
T5 sequence (P50406 whole entry): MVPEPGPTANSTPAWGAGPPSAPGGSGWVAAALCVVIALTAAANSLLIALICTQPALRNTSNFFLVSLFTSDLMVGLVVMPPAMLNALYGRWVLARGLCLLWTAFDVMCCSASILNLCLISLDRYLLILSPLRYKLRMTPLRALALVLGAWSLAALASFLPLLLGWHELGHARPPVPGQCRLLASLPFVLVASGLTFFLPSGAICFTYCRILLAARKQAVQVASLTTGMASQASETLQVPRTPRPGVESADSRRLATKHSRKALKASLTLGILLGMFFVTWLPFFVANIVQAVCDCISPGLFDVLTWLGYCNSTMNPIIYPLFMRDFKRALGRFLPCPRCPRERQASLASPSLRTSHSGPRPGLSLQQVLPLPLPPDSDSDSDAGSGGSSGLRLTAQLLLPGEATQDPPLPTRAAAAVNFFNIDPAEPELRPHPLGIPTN
From the text: Receptor proteins were filtered and washed, the filters were then counted to determine [3H]LSD specifically bound. […] Biochemical assay results are presented as the percent inhibition of specific binding in Table 6.

[6] = […] [3H]Pyrilamine, read-out: Histamine Binding H1, percent inhibition of specific binding
[7] = 1 μM compound, […] [3H]Pyrilamine, read-out: Histamine Binding H1, percent inhibition of specific binding
[8] = percent inhibition of specific binding, screened at 1 μM, read-out: Inhibition of ligand binding, Hist. H1

Row | SMILES | inhibition at 0.03 µM ([1]; 0.03 μM compound, […] [3H]Pyrilamine, read-out: Histamine Binding H1, percent inhibition of specific binding) | inhibition at 0.1 µM [1, 6] | inhibition at 1 µM [1, 7] | inhibition at 1 µM [1, 8] | Inhibition of ligand binding, Adren. alpha2A [2] | Inhibition of ligand binding, Ser. 5-HT2A [3] | Inhibition of ligand binding, Ser. 5-HT2C [4] | Inhibition of ligand binding, Ser. 5-HT6 [5] | inhibition at 0.01 µM [1, 6]
1 | CCN1CCc2c(c3cc(C)ccc3n2CCc2ccncc2)C1 [Compound 27, 2-ethyl-2,3,4,5-tetrahydro-8-methyl-5-(2-(pyridin-4-yl)ethyl)-1H-pyrido[4,3-b]indole] | 58% | 77% | 99% | 99% | 53% | 63% | 29% | 38% | 
2 | CN1CCc2c(c3cc(Cl)ccc3n2CCc2ccccn2)C1 [Compound 30, 8-chloro-2,3,4,5-tetrahydro-2-methyl-5-(2-(pyridin-2-yl)ethyl)-1H-pyrido[4,3-b]indole] |  |  | 80% | 80% | 84% | 91% | 90% | 90% | 
3 | CCN1CCc2c(c3cc(C)ccc3n2CCc2ccc(C)nc2)C1 [Compound 31, 2-ethyl-2,3,4,5-tetrahydro-8-methyl-5-(2-(6-methylpyridin-3-yl)ethyl)-1H-pyrido[4,3-b]indole] |  |  | 100% | 100% | 66% | 65% | 39% | 64% | 
4 | Cc1ccc2c(c1)c1c(n2CCc2ccc(Cl)cc2)CCN(C)C1 [Compound 32, 5-(4-chlorophenethyl)-2,3,4,5-tetrahydro-2,8-dimethyl-1H-pyrido[4,3-b]indole] |  | 87% | 101% | 101% | 97% | 96% | 100% | 101% | 52%
5 | Cc1ccc2c(c1)c1c(n2CCc2ccc(F)cc2)CCN(C)C1 [Compound 33, 5-(4-fluorophenethyl)-2,3,4,5-tetrahydro-2,8-dimethyl-1H-pyrido[4,3-b]indole] |  | 89% | 98% | 98% | 98% | 97% | 95% | 100% | 46%
6 | Cc1ccc2c(c1)c1c(n2CCc2ccccc2F)CCN(C)C1 [Compound 34, 5-(2-fluorophenethyl)-2,3,4,5-tetrahydro-2,8-dimethyl-1H-pyrido[4,3-b]indole] |  | 67% | 96% | 96% | 99% | 99% | 96% | 104% | 22%
7 | CN1CCc2c(c3cc(Cl)ccc3n2CCc2ccccc2)C1 [Compound 36, 8-chloro-2,3,4,5-tetrahydro-2-methyl-5-phenethyl-1H-pyrido[4,3-b]indole] |  | 91% | 99% | 99% | 97% | 98% | 94% | 104% | 48%
8 | CN1CCc2c(c3cc(I)ccc3n2CCc2ccccc2F)C1 [Compound 89, 5-(2-fluorophenethyl)-2,3,4,5-tetrahydro-8-iodo-2-methyl-1H-pyrido[4,3-b]indole] |  |  | 97% | 97% | 98% | 90% | 97% | 103% | 
9 | Cc1ccc2c(c1)c1c(n2Cc2ccccc2)CCN(C)C1 [Compound 137, 5-benzyl-2,3,4,5-tetrahydro-2,8-dimethyl-1H-pyrido[4,3-b]indole] |  |  | 11% | 11% | 15% | −2% | 10% | 12% | 
10 | CCN1CCc2c(c3cc(C)ccc3n2Cc2ccc(C)nc2)C1 [Compound 138, 2-ethyl-2,3,4,5-tetrahydro-8-methyl-5-((6-methylpyridin-3-yl)methyl)-1H-pyrido[4,3-b]indole] |  |  | 68% | 68% | 31% | 14% | 5% | 22% | 
11 | Cc1ccc2c(c1)c1c(n2Cc2ccc(C)nc2)CCN(C)C1 [Compound 139, 2,3,4,5-tetrahydro-2,8-dimethyl-5-((6-methylpyridin-3-yl)methyl)-1H-pyrido[4,3-b]indole] |  |  | 81% | 74% | 50% | 2% | 0% | 39% | 
12 | CCN1CCc2c(c3cc(C)ccc3n2Cc2ccccc2)C1 [Compound 140, 5-benzyl-2-ethyl-2,3,4,5-tetrahydro-8-methyl-1H-pyrido[4,3-b]indole] |  |  | 15% | 15% | 17% | −3% | −10% | 8% | 
13 | Cc1ccc2c(c1)c1c(n2CCC2CCCCC2)CCN(C)C1 [Compound 163, 5-(2-cyclohexylethyl)-2,3,4,5-tetrahydro-2,8-dimethyl-1H-pyrido[4,3-b]indole] |  | 92% | 103% | 103% | 93% | 92% | 99% | 99% | 59%
